The source of these data is patent US20070099259A1, “ELECTROCHEMICAL ASSAY FOR THE IDENTIFICATION OF MICROORGANISMS” (RAPID LABORATORY MICROSYSTEMS INC., priority 2003, published 2007).

Molecules are shown by their SMILES. Where two headings read alike, the source gives them in different places.

The subject of assay [1] is S. aureus ATCC6538P. Briefly: Relative respiratory activity with 22 effectors (Example 3). Format: cell-based, Staphylococcus aureus. The settings on record: Staphylococcus aureus, ATCC6538P; for activity at 10000 µM: read-out: relative %-respiratory activity; for activity at 20000 µM: effector 20 mM, 5 μM DCIP, no effector = 100%, n = 20. The source says: (§1) In this example, each microorganism is subjected to 22 different effector compounds in addition to control measurements. […] For each microorganism, duplicate measurements were made of 22 different effector compounds. In addition, duplicate measurements were made a control test containing no effector compound. One additional measurement was made of a control solution containing the microorganism with ferricyanide but without effector or DCIP.
(§2) In this example, each normalized data set containing duplicate measurements for each of 22 effector compounds is referenced to the duplicate internal controls to allow batch-to-batch comparison. The obtained signals of charge per unit electrode area for the duplicate control measurements are averaged and set at 100% respiratory cycle activity. […] The data set used to generate pattern recognition plots consists of 5 replicate batches (each batch containing duplicate measurements for each of 22 effector compounds) for each cell culture (10 strains). This is used to generate a 50 (columns)×22 (rows) matrix. The matrix is imported into MATLAB (Version 6.0). Factor analysis is performed using the MATLAB Chemometric Toolbox (Version 2.3) and involves the generation of reduced eigenvectors to determine the optimal number of factors, examination of the resulting residuals plots for randomness, and the generation of scores for the first four principle components.

The test system of assay [2] is E. faecalis. Described as above. The format is cell-based, Enterococcus faecalis. The settings on record: Enterococcus faecalis; for activity at 10000 µM: read-out: relative %-respiratory activity; for activity at 20000 µM: effector 20 mM, 5 μM DCIP, no effector = 100%, n = 20.
Excerpt: as §1, §2

In assay [3] the test system is Staphylococcus aureus ATCC 6538P. Briefly: Respiration assay (Example 1), electrochemical ferricyanide/DCIP mediator consumption. The format is cell-based. The following applies: effector 10 mM; for slope: 5 μM DCIP, 50 mM ferricyanide, 35° C.; for normalized slope: area normalized; for relative activity: buffer set as 100%. The protocol: (§3) The ferricyanide solution is added so that the final ferricyanide concentrations is 50 mM.
(§4) The bacterial suspensions were adjusted to a MacFarland Standard of 5.0 (5.0×10sup.8 cfu/mL) or an optical density of 1.2 measured at 625 nm and cell growth was stopped by cooling the bacterial suspension for a minimum of 15 min in an ice-bath.

Assay [4] has as its system P. vulgaris ATCC6380. Briefly: Relative respiratory activity with 22 effectors (Example 3). The format is cell-based, Proteus vulgaris. The settings on record: Proteus vulgaris; for activity at 10000 µM: ATCC6380, read-out: relative %-respiratory activity; for activity at 20000 µM: ATCC6380, effector 20 mM, 5 μM DCIP, no effector = 100%, n = 20.
Excerpt: as §1, §2

Assay [5] has as its system S. cerevisiae. The assay is described as above. The format is cell-based, Saccharomyces cerevisiae. The settings on record: Saccharomyces cerevisiae; for activity at 10000 µM: read-out: relative %-respiratory activity; for activity at 20000 µM: effector 20 mM, 5 μM DCIP, no effector = 100%, n = 10.
Excerpt: as §1, §2

For assay [6], the system named is P. aeruginosa. The assay is described as above. The settings on record: Pseudomonas aeruginosa; for activity at 10000 µM: read-out: relative %-respiratory activity; for activity at 20000 µM: effector 20 mM, 5 μM DCIP, no effector = 100%, n = 18. Format: cell-based, Pseudomonas aeruginosa.
Excerpt: as §1, §2

The test system of assay [7] is E. aerogenes ATCC13048e. Described as above. The format is cell-based, Enterobacter aerogenes. The settings on record: Klebsiella aerogenes, ATCC13048E; for activity at 10000 µM: read-out: relative %-respiratory activity; for activity at 20000 µM: effector 20 mM, 5 μM DCIP, no effector = 100%, n = 26.
Excerpt: as §1, §2

Assay [8] concerns E. coli Neotype. Described as above. Format: cell-based. The settings on record: Escherichia coli; for activity at 10000 µM: read-out: relative %-respiratory activity; for activity at 20000 µM: effector 20 mM.
Excerpt: as §1, §2

The test system of assay [9] is E. coli JM105. The assay is described as above. The format is cell-based. The settings on record: Escherichia coli; for activity at 10000 µM: JM105, read-out: relative %-respiratory activity; for activity at 20000 µM: JM105, effector 20 mM, 5 μM DCIP, no effector = 100%, n = 10.
Excerpt: as §1, §2

For assay [10], the system named is E. coli B. Described as above. The format is cell-based. The following applies: Escherichia coli; for activity at 10000 µM: read-out: relative %-respiratory activity; for activity at 20000 µM: effector 20 mM.
Excerpt: as §1, §2

The test system of assay [11] is E. coli HB101. Described as above. Format: cell-based. The settings on record: Escherichia coli; for activity at 10000 µM: HB101, read-out: relative %-respiratory activity; for activity at 20000 µM: HB101, effector 20 mM, 5 μM DCIP, no effector = 100%, n = 18.
Excerpt: as §1, §2

The test system of assay [12] is Enterobacter aerogenes ATCC 13048e. Briefly: Respiration assay (Example 1), electrochemical ferricyanide/DCIP mediator consumption. The following applies: effector 10 mM. The format is cell-based. The protocol:
as §3, §4

Where [13] appears, read: effector 10 mM, 5 μM DCIP, no effector = 100%, n = 10.
[14] abbreviates: 5 μM DCIP, no effector = 100%, n = 26.
The mark [15] stands for this setting: 5 μM DCIP, no effector = 100%, n = 10.

In the case of `N=C(N)NCCC[C@H](N)C(=O)O` [L-arginine], the activity at 10000 µM amounted to 132% in assay [1]; 130% in assay [2]; 149% in [4]; 139% in assay [5]; 155% in [6]; 129% in [7]. Moreover, the activity at 10000 µM in [8] (effector 10 mM, 5 μM DCIP, no effector = 100%, n = 26) came to 114%; in assay [9], 163%; in [10] (setting [13]) it was 137%; in assay [11] it was 114%. Moreover, in assay [3], the slope stood at 9.1 μC/min. The normalized slope in assay [3] stood at 5.3 μC/min*mm^2. Further, the relative activity in [3] was 100%.
On to `O=[N+]([O-])[O-].[K+]` [nitrate, potassium nitrate], for which the slope is recorded as 6.9 μC/min in assay [3] and 3.7 μC/min in assay [12] (5 μM DCIP, 50 mM ferricyanide, 35° C.). Besides, the normalized slope worked out at 4.1 μC/min*mm^2 in assay [3] and 2.2 μC/min*mm^2 in assay [12] (area normalized). Further, the relative activity in assay [3] is on record as 76%; in assay [12] (buffer set as 100%), 23%.
For `O=C(O)CC(O)(CC(=O)O)C(=O)O` [Citric acid], the activity at 20000 µM in [1] turned out to be 83%; in assay [2], 117%; in assay [4], 142%; in [5], 103%; in assay [6] it was 87%; in [7], 163%. Besides, the activity at 20000 µM in assay [8] (setting [14]) is 158%; in assay [9], 113%; in assay [10] (setting [15]), 161%; in assay [11], 137%.
In the case of `O=C[C@@H](O)[C@H](O)[C@H](O)CO` [D-arabinose], the activity at 20000 µM in [1] came to 115%; in assay [2], 139%; in [4], 150%; in assay [5], 143%; in assay [6], 113%; in [7], 106%. Besides, the activity at 20000 µM came to 103% in [8] (setting [14]), 137% in assay [9], 118% in [10] (setting [15]) and 107% in assay [11].
For the compound `C[C@H](O)[C@H](O)[C@@H](O)[C@@H](O)C=O` [L-rhamnose], the activity at 20000 µM in assay [1] amounted to 101%; in assay [2], 105%; in assay [4] it was 145%; in [5], 124%; in assay [6] it was 94%; in assay [7] it was 110%. Besides, the activity at 20000 µM in [8] (setting [14]) was determined as 105%; in [9], 116%; in assay [10] (setting [15]) it was 119%; in assay [11] it was 103%.
Take `OC[C@H]1O[C@@](CO)(O[C@H]2O[C@H](CO)[C@@H](O)[C@H](O)[C@H]2O)[C@@H](O)[C@@H]1O` [Sucrose]: the activity at 20000 µM in assay [1] was 290%; in assay [2], 465%; in assay [4], 164%; in assay [5], 161%; in [6], 117%; in assay [7], 188%. The activity at 20000 µM was 122% in assay [8] (setting [14]), 121% in assay [9], 124% in [10] (setting [15]) and 110% in assay [11].
In the case of `N[C@@H](Cc1c[nH]c2ccccc12)C(=O)O` [L-tryptophan], the activity at 10000 µM in [1] was determined as 139%; in [2], 232%; in assay [4], 521%; in assay [5] it was 188%; in assay [6], 170%; in [7], 126%. Also, the activity at 10000 µM is 93% in assay [8], 133% in assay [9], 98% in assay [10] (setting [13]) and 129% in assay [11].
Consider `O=C(CO)[C@@H](O)[C@H](O)[C@H](O)CO` [D-fructose], for which the activity at 20000 µM in [1] came to 289%; in [2], 463%; in assay [4] it was 183%; in assay [5] it was 152%; in assay [6] it was 136%; in assay [7], 275%. Besides, the activity at 20000 µM in assay [8] (setting [14]) amounted to 125%; in assay [9], 202%; in assay [10] (setting [15]), 147%; in assay [11], 202%.
As for `O=CO` [Formic acid], the activity at 10000 µM in [1] was 298%; in [2], 157%; in [4], 222%; in [5], 132%; in [6], 120%; in assay [7] it was 124%. Further, the activity at 10000 µM in assay [8] was found to be 114%; in [9], 136%; in assay [10], 132%; in assay [11], 163%.
Consider `O=C[C@H](O)[C@@H](O)[C@H](O)CO` [D-xylose], for which the activity at 20000 µM was found to be 128% in assay [1]; 128% in assay [2]; 178% in assay [4]; 116% in [5]; 113% in assay [6]; 149% in assay [7]. Further, the activity at 20000 µM in [8] (setting [14]) is 110%; in assay [9], 134%; in [10] (setting [15]) it was 102%; in [11], 110%.
As to `OC[C@H]1O[C@@H](O[C@H]2[C@H](O)[C@@H](O)C(O)O[C@@H]2CO)[C@H](O)[C@@H](O)[C@H]1O` (stereo partly drawn) [D-lactose], the activity at 20000 µM in assay [1] stood at 138%; in [2] it was 123%; in [4] it was 162%; in assay [5], 126%; in [6], 108%; in [7] it was 268%. For the same compound, the activity at 20000 µM in assay [8] (setting [14]) came out at 150%; in [9], 115%; in assay [10] (setting [15]), 164%; in assay [11], 192%.
